Test results published in BindingDB's records for doi:10.1016/s0960-894x(04)00332-4 (Aventis Pharma, 2004).

The compounds below were run against Beta-lactamase P99 (Enterobacter cloacae) (UniProt P05364) (assay: Time dependent inhibition of hydrolysis of nitrocefin after 5 min pre-incubation with P99 beta-lactamases (class C)).
Beta-lactamase P99 (Enterobacter cloacae), sequence (P05364 whole entry, looked up): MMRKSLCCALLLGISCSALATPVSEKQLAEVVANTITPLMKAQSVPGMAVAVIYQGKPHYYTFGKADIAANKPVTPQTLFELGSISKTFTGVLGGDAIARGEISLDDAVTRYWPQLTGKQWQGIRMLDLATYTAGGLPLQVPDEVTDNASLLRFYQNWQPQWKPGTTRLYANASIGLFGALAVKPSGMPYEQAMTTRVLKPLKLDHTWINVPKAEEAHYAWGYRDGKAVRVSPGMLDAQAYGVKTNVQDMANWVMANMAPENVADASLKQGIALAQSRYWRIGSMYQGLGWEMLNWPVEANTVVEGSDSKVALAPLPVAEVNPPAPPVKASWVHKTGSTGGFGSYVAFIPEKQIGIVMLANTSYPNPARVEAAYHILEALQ

Compound	IC50 [µM]
CC[C@@H]1C(=O)N2C[C@@H]1C=C(OC)C2C(=O)OCc1ccc([N+](=O)[O-])cc1 (stereo partly drawn) [(1S,5R,6S)-6-Ethyl-3-methoxy-7-oxo-1-aza-bicyclo[3.2.1]oct-3-ene-2-carboxylic acid 4-nitro-benzyl ester]	210

What follows are compounds tested against Beta-lactamase P99 (Enterobacter cloacae) (UniProt P05364) (assay: Inhibition of hydrolysis of nitrocefin after 5 min pre-incubation with P99 beta-lactamases (class C)).

Compound	IC50 [µM]
COC1=C(C(=O)OCc2ccc([N+](=O)[O-])cc2)N2C[C@@H](CC2=O)C1 [(1S,5R)-3-Methoxy-7-oxo-1-aza-bicyclo[3.2.1]oct-2-ene-2-carboxylic acid 4-nitro-benzyl ester]	160
CC[C@@H]1C(=O)N2C[C@@H]1CC(OC)=C2C(=O)OCc1ccc([N+](=O)[O-])cc1 [(1S,5R,6S)-6-Ethyl-3-methoxy-7-oxo-1-aza-bicyclo[3.2.1]oct-2-ene-2-carboxylic acid 4-nitro-benzyl ester]	300
CC[C@@H]1C(=O)N2C[C@@H]1CC(OC)=C2C(=O)O [(1S,5R,6S)-6-Ethyl-3-methoxy-7-oxo-1-aza-bicyclo[3.2.1]oct-2-ene-2-carboxylic acid]	100
COC1=C[C@@H]2CC(=O)N(C2)C1C(=O)OCc1ccc([N+](=O)[O-])cc1 (stereo partly drawn) [(1S,5S)-3-Methoxy-7-oxo-1-aza-bicyclo[3.2.1]oct-3-ene-2-carboxylic acid 4-nitro-benzyl ester]	25
COC1=C[C@@H]2CC(=O)N(C2)C1C(=O)O (stereo partly drawn) [(1S,5S)-3-Methoxy-7-oxo-1-aza-bicyclo[3.2.1]oct-3-ene-2-carboxylic acid]	140
